Patent US20250188123A1, “PROTEASE INHIBITORS” (Regents of the University of Minnesota, priority 2022, published 2025)
Like-named read-outs stand apart in the source and are kept apart here.

Key:
Format in all cases: biochemical
[1] = biological target: T1, human caspase-3 (Homo sapiens, UniProt P42574); test: Fluorescent enzyme assay, Casp3 (AFC substrate AcDEVD-AFC)
T1 construct: made in house; host or cells: E. coli Rosetta 2 pLysS DE3
T1 sequence (P42574 29-277): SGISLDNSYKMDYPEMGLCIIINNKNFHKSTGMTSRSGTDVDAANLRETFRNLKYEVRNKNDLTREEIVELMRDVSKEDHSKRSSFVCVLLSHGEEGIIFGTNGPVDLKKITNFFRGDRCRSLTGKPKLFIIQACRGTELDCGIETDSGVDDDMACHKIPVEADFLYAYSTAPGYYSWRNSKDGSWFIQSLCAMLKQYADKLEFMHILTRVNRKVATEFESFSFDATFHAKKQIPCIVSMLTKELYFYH
From the text: (§1) Human recombinant Casp1, 6, 7, and 9 were purchased from BioVision (Milpitas/CA, USA). AFC fluorogenic substrates and control peptides (AcYVAD-CHO, AcVDVAD-CHO, AcDEVD-CHO, AcVEID-CHO, and AcLEHD-CHO) were purchased from Bachem (Torrance/CA, USA). The pET23b vector encoding human caspase-3 was a gift of Dr. Michelle Arkin at University of California, San Francisco. Expression and purification of Casp3 was guided by previously described protocols (Denault J-B, Salvesen G S., Current Protocols in Protein Science, 2002, 30(1), 21.13. 1-21.13. 15). Briefly, the plasmid was transformed into E. coli Rosetta 2 pLyss DE3 cells that were cultured at 1 L scale in shake flasks. Five hours post induction with IPTG, cells were harvested through centrifugation (4000 g for 10 minutes at 4° C.), lysed by sonication, and centrifuged again for 30 minutes at 20000 g. Supernatant was resuspended in buffer (100 mM Tris pH 8.0, 500 mM NaCl). Purification was achieved by nickel-affinity chromatography followed by ion-exchange chromatography. Protein was diluted to 0.5 mg/mL and stored at −80° C. in 100 mM Tris, pH 8.0 supplemented with 10% glycerol. The typical yield for the expression, isolation, and purification was approximately 3 mg/L. The DNA encoding human caspase-2 (hCASP2, amino acids 170-452, free of the N-terminal caspase activation and recruitment domain) open reading frame (ORF) was amplified via polymerase chain reaction (PCR) from full-length hCASP2 cDNA (Origene, Rockville, MD; Cat #SC321316) using following primers: forward, 5′-[…]-3′; reverse, 5′-[…]-3′. The PCR fragment was then cloned into the pET23b vector (Millipore Sigma, Burlington, MA), and DNA sequence was verified by classic Sanger sequencing analyses. Site-directed mutageneses were carried out using a QuikChange II XL site-directed mutagenesis kit (Agilent Technologies, Santa Clara, CA; Cat #200522) according to the manufacturer's instruction. Expression of recombinant hCASP2 was induced using 150 μM isopropyl-β-D-thiogalactopyranoside (IPTG) (Promega, Madison, WI) in the BL21(DE3) E. coli strain (Millipore Sigma) at 16° C. for 14 hours while shaking at 250 rpm. Cells were then harvested via centrifugation at 6,000 g, 4° C. for 15 minutes, followed by lysis via sonication. Proteins were initially purified using HisPur Ni-NTA resin (Thermo Fisher Scientific, Waltham, MA) followed by metal chelating chromatography (5 mL HiTrap Chelating HP columns (GE Healthcare Life Sciences, Piscataway, NJ)). Further purification was carried out using anion exchange chromatography (5 mL HiTrap Q HP columns (GE Healthcare Life Sciences)) for hCASP2. Proteins were stored in 1× phosphate-buffered saline (pH 7.4) at 10 mg/mL (concentration determined using a BCA assay (Thermo Fisher Scientific)), −80° C. until further use.
(§2) KM values were determined experimentally to be the following: Casp1: 5.9 μM; Casp2: 37.1 μM; Casp3: 7.6 μM; Casp6: 14.5 μM; Casp7: 13.8 μM; Casp9: 149.1 μM. Enzymes were diluted in buffer: 100 mM MES (pH 6.5) for Casp2 and or 100 mM HEPES (pH 7.0) for all other caspases, plus 150 mM NaCl, 0.1% CHAPS, 1.5% sucrose, 10 mM DTT. Enzyme concentrations were 0.05 U/well for Casp1, 6, and 7; 0.5 U/well for Casp9, 20 nM/well for Casp2, and 2 nM/well for Casp3. Enzyme in buffer (19 μL) was added per well in a black 384-well Corning 4514 assay plate. Test compounds were serially diluted in dimethyl sulfoxide (DMSO) and plated in duplicate into a Corning 3656 transfer plate. Test compound was added to assay plates in 0.5 μL aliquots per well and mixed 10 times using a BiomekFX (Beckman Coulter). Compound and enzyme mixture was incubated at 37° C. for 5 minutes for aldehyde warheads and 45 minutes for cyano warheads. […]

[2] = biological target: T2, human caspase-2 (Homo sapiens, UniProt P42575); test: Fluorescent enzyme assay, Casp2 (AFC substrate Z-VDVAD-AFC); conditions: for Ki (Casp3) / Ki (Casp2): selectivity Casp2 over Casp3
T2 construct: inferred from pET23b, XhoI reverse primer without stop codon, Ni-NTA purification) (C); made in house; host or cells: E. coli BL21(DE3)
T2 sequence (P42575 170-452): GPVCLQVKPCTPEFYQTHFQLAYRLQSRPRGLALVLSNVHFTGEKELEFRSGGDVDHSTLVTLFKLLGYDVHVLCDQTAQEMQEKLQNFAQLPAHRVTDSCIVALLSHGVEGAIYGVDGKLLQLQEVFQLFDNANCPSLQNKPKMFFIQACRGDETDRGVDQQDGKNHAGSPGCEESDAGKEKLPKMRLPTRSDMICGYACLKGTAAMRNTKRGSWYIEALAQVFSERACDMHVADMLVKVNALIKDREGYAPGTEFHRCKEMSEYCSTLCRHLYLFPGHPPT
From the text: as §1, §2

[3] = biological target: T3, Human recombinant Casp6 (Homo sapiens, UniProt P55212); test: In vitro caspase panel assay, Casp6; conditions: Casp2 over Casp6, caspase panel
T3 construct: purchased BioVision (Milpitas/CA, USA)
T3 sequence (P55212 24-293): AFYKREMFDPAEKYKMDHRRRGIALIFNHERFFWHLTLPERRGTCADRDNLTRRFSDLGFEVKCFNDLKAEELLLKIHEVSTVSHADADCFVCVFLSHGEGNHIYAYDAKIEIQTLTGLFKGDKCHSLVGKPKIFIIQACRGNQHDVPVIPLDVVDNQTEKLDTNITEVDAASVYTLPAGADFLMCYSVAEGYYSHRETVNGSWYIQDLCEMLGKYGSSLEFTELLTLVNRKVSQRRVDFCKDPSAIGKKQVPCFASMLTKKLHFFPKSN
From the text: Human recombinant Casp1, 6, 7, and 9 were purchased from BioVision (Milpitas/CA, USA). AFC fluorogenic substrates and control peptides (AcYVAD-CHO, AcVDVAD-CHO, AcDEVD-CHO, AcVEID-CHO, and AcLEHD-CHO) were purchased from Bachem (Torrance/CA, USA). The pET23b vector encoding human caspase-3 was a gift of Dr. Michelle Arkin at University of California, San Francisco. Expression and purification of Casp3 was guided by previously described protocols (Denault J-B, Salvesen G S., Current Protocols in Protein Science, 2002, 30(1), 21.13. 1-21.13. 15). Briefly, the plasmid was transformed into E. coli Rosetta 2 pLyss DE3 cells that were cultured at 1 L scale in shake flasks. […] The typical yield for the expression, isolation, and purification was approximately 3 mg/L. The DNA encoding human caspase-2 (hCASP2, amino acids 170-452, free of the N-terminal caspase activation and recruitment domain) open reading frame (ORF) was amplified via polymerase chain reaction (PCR) from full-length hCASP2 cDNA (Origene, Rockville, MD; Cat #SC321316) using following primers: forward, 5′-[…]-3′; reverse, 5′-[…]-3′. […] Proteins were stored in 1× phosphate-buffered saline (pH 7.4) at 10 mg/mL (concentration determined using a BCA assay (Thermo Fisher Scientific)), −80° C. until further use. […]

[4] = mean ± SEM of N independent experiments, each in duplicate or triplicate

Row | SMILES | Ki ([1]; mean ± SEM of N independent experiments, each in duplicate or triplicate, read-out: pKi ± SEM Casp 3 (converted)) [nM] | Ki ([2]; mean ± SEM of N independent experiments, each in duplicate or triplicate, read-out: pKi ± SEM Casp 2 (converted)) [nM] | Ki (Casp3) / Ki (Casp2) [2] | Ki [1] [nM] | selective versus Casp6 [3] [fold] | Ki [2] [nM] | selective versus Casp3 ([2]; Casp2 over Casp3) [fold] | pKi ± SEM Casp 3 [1, 4] | pKi ± SEM Casp 2 [2, 4]
1 | CC(=O)N[C@H](C(=O)NC(CC(=O)O)C(=O)N[C@H](C(=O)N1CCc2cc(C)ccc2C1C(=O)N[C@H](C=O)CC(=O)O)C(C)C)C(C)C (stereo in doubt) [Compound 30a, (R)-3-((S)-2-acetamido-3-methylbutanamido)-4-(((S)-1-((S)-1-(((S)-1-carboxy-3-oxopropan-2-yl)carbamoyl)-6-methyl-3,4-dihydroisoquinolin-2(1H)-yl)-3-methyl-1-oxobutan-2-yl)amino)-4-oxobutanoic acid, reference compound] | > 100000 | 10500 | >9 | – | – | – | – | – | –
2 | Cc1ccc2c(c1)CCN(C(=O)[C@@H](NC(=O)[C@H](CCCC(=O)O)NC(=O)C1Cc3ccccc3N1)C(C)C)[C@@H]2C(=O)N[C@H](C#N)CC(=O)O (stereo partly drawn) [Compound 1, (8)-6-(((S)-1-((8)-1-(((S)-2-carboxy-1-cyanoethyl)carbamoyl)-6-methyl-3,4-dihydroisoquinolin-2(1H)-yl)-3-methyl-1-oxobutan-2-yl)amino)-5-((S)-indoline-2-carboxamido)-6-oxohexanoic acid] | – | – | 123 | 933 | > 2000 | 7.59 | 123 | – | –
3 | CC(=O)N[C@H](C(=O)N[C@@H](CC(=O)O)C(=O)N[C@H](C(=O)N1CCc2cc(C)ccc2[C@H]1C(=O)N[C@H](C=O)CC(=O)O)C(C)C)C(C)C [Compound 30b, (S)-3-((S)-2-acetamido-3-methylbutanamido)-4-(((S)-1-((S)-1-(((S)-1-carboxy-3-oxopropan-2-yl)carbamoyl)-6-methyl-3,4-dihydroisoquinolin-2(1H)-yl)-3-methyl-1-oxobutan-2-yl)amino)-4-oxobutanoic acid, reference compound] | – | – | 70 | – | – | – | – | 6.04 ± 0.06 | 7.89 ± 0.02
